# Results as given in US11400079B2, “Antibacterial monobactams” (University of Notre Dame du Lac, priority 2017, dated 2022).
# Counter-ions that a name gives are not always drawn. Like-named read-outs stand apart in the source and are kept apart here.
# How the values were obtained:
# A.baumannii ISR14-005 = test: MIC antibacterial assay (iron depleted media); format: cell-based, Acinetobacter baumannii; settings: Acinetobacter baumannii, ISR14005
# Description: (§1) General Methods. All solvents and reagents were obtained from commercial sources and used without further purification unless otherwise stated. General methods of purification of compounds involved the use column chromatography with silica gel (230-400 mesh) purchased from Silicycle, Quebec City, Canada. The reactions were monitored by TLC on precoated Merck 60 F254 silica gel plates and visualized using UV light (254 nm).
# (§2) Antibacterial assays were performed using iron depleted media as described previously (J. Med. Chem. 2017, 60, 4577).
# [1] = tested on: A. baumannii ATCC 17978-PNT-320; test: MIC antibacterial assay (iron depleted media); format: cell-based, Acinetobacter baumannii; settings: Acinetobacter baumannii, ATCC17978
# Description: as §1, §2
# [2] = tested on: A. baumannii ATCC BAA 1800; test: MIC antibacterial assay (iron depleted media); format: cell-based, Acinetobacter baumannii
# Description: as §1, §2
# [3] = tested on: β-lactamase producing strains of A. baumannii; test: Antibacterial activity in combination with tazobactam; format: cell-based, Acinetobacter baumannii; settings: combinations with tazobactam
# Description: as §1, §2
# E. coli DCO = test: MIC antibacterial assay (iron depleted media); format: cell-based; settings: Escherichia coli
# Description: as §1, §2
# P. aeruginosa KW799/wt = test: MIC antibacterial assay (iron depleted media); format: cell-based; settings: Pseudomonas aeruginosa
# Description: as §1, §2
# A. baumannii ATCC 17961 = test: MIC antibacterial assay (iron depleted media); format: cell-based; settings: Acinetobacter baumannii, ATCC17961
# Description: as §1, §2
# Proteus mirabilis X235 = test: MIC antibacterial assay (iron depleted media); format: cell-based
# Description: as §1, §2
# [4] = tested on: Salmonella typhimurium ATCC13311; test: MIC antibacterial assay (iron depleted media); format: cell-based; settings: Salmonella enterica
# Description: as §1, §2
# P. aeruginosa 01 = test: MIC antibacterial assay (iron depleted media); format: cell-based; settings: Pseudomonas aeruginosa
# Description: as §1, §2
# [5] = tested on: A. baumannii ATCC17978-PNT-165; test: MIC antibacterial assay (iron depleted media); format: cell-based; settings: Acinetobacter baumannii
# Description: as §1, §2
# P. aeruginosa ISR-14-004 = test: MIC antibacterial assay (iron depleted media); format: cell-based; settings: Pseudomonas aeruginosa, ISR14004
# Description: as §1, §2
# [6] = tested on: Citrobacter freuendii ATCC 29063; test: MIC antibacterial assay (iron depleted media); format: cell-based; settings: ATCC29063
# Description: as §1, §2
# P. aeruginosa ISR-14-003 = test: MIC antibacterial assay (iron depleted media); format: cell-based; settings: Pseudomonas aeruginosa, ISR14003
# Description: as §1, §2
# P. aeruginosa ARC 3506 = test: MIC antibacterial assay (iron depleted media); format: cell-based; settings: Pseudomonas aeruginosa, ARC3506
# Description: as §1, §2
# S. aureus SG 511 = test: MIC antibacterial assay (iron depleted media); format: cell-based; settings: Staphylococcus aureus, SG511
# Description: as §1, §2
# B. dolosa AU0018 = test: MIC antibacterial assay (iron depleted media); format: cell-based; settings: Burkholderia dolosa
# Description: as §1, §2
# [7] = tested on: A. baumannii ATCC BAA 1797; test: MIC antibacterial assay (iron depleted media); format: cell-based; settings: Acinetobacter baumannii, BAA1797
# Description: as §1, §2
# [8] = tested on: Enterobacter aerogenes X816; test: MIC antibacterial assay (iron depleted media); format: cell-based; settings: Klebsiella aerogenes
# Description: as §1, §2
# P. aeruginosa ARC 3502 = test: MIC antibacterial assay (iron depleted media); format: cell-based; settings: Pseudomonas aeruginosa
# Description: as §1, §2
# Gram-negative bacteria = test: Antibacterial activity against tested Gram-negative strains (summary in words); format: cell-based; settings: tested strains of Gram-negative bacteria
# Description: as §1, §2
# [9] = tested on: strong β-lactamase producing strains of P. aeruginosa (ARC 3502 and ARC 3506); test: Antibacterial activity, alone and in combination with tazobactam; format: cell-based; settings: co-administration with tazobactam
# Description: as §1, §2
# A. baumannii ARC 5079 = test: MIC antibacterial assay (iron depleted media); format: cell-based, Acinetobacter baumannii; settings: Acinetobacter baumannii, ARC5079
# Description: as §1, §2
# [10] = tested on: A. baumannii ATCC BAA 1793; test: MIC antibacterial assay (iron depleted media); format: cell-based, Acinetobacter baumannii
# Description: as §1, §2
# [11] = B. dolosa AU0018, MH2 broth with 160 μM bipyridyl added, read-out: MIC
compound,measurement,setting,value
"CC(C)(O/N=C(\C(=O)NC1C(=O)N(S(=O)(=O)O)C1CSCCNC(=O)CN(CCCCNC(=O)c1cccc(O)c1O)C(=O)c1cccc(O)c1O)c1cnc(N)s1)C(=O)O (racemic) [Compound 42, (E)-2-(((1-(2-Aminothiazol-5-yl)-2-((2-(8-(2,3-dihydroxybenzoyl)-14-(2,3-dihydroxyphenyl)-6,14-dioxo-2-thia-5,8,13-triazatetradecyl)-4-oxo-1-sulfoazetidin-3-yl)amino)-2-oxoethylidene)amino)oxy)-2-methylpropanoic acid]",MIC,"A.baumannii ISR14-005; A. baumannii ISR14-005 (clinical isolate), compound alone, MH2 broth with 160 μM bipyridyl added, read-out: MIC",> 50 µM
same,MIC,"A.baumannii ISR14-005; A. baumannii ISR14-005 (clinical isolate), in combination with tazobactam, read-out: MIC (+tazo)",25 µM
same,MIC,[1],0.4 µM
same,MIC,"[2]; Acinetobacter baumannii, BAA1800, MH2 broth with 160 μM bipyridyl added",0.1 to 0.4 µM
same,effect of combination with tazobactam on activity (in words),[3],most enhancement of activity
same,MIC,"E. coli DCO; E. coli DCO, MH2 broth with 160 μM bipyridyl added, read-out: MIC",< 0.025 µM
same,MIC,"P. aeruginosa KW799/wt; P. aeruginosa KW799/wt, MH2 broth with 160 μM bipyridyl added, read-out: MIC",0.4 µM
same,MIC,"A. baumannii ATCC 17961; A. baumannii ATCC 17961, MH2 broth with 160 μM bipyridyl added, read-out: MIC",0.2 µM
same,MIC,"Proteus mirabilis X235; Proteus mirabilis X235, MH2 broth with 160 μM bipyridyl added, read-out: MIC",< 0.025 µM
same,MIC,"[4]; Salmonella typhimurium ATCC13311, MH2 broth with 160 μM bipyridyl added, read-out: MIC",0.025 µM
same,MIC,"P. aeruginosa 01; P. aeruginosa 01, MH2 broth with 160 μM bipyridyl added, read-out: MIC",0.4 µM
same,MIC,[5],0.4 µM
same,MIC,"P. aeruginosa ISR-14-004; P. aeruginosa ISR-14-004 (clinical isolate), compound alone, MH2 broth with 160 μM bipyridyl added, read-out: MIC",6 µM
same,MIC,"P. aeruginosa ISR-14-004; P. aeruginosa ISR-14-004 (clinical isolate), in combination with tazobactam, read-out: MIC (+tazo)",3 µM
same,MIC,"[6]; Citrobacter freuendii ATCC 29063, MH2 broth with 160 μM bipyridyl added, read-out: MIC",0.05 µM
same,MIC,"P. aeruginosa ISR-14-003; P. aeruginosa ISR-14-003 (clinical isolate), compound alone, MH2 broth with 160 μM bipyridyl added, read-out: MIC",1.6 µM
same,MIC,"P. aeruginosa ISR-14-003; P. aeruginosa ISR-14-003 (clinical isolate), in combination with tazobactam, read-out: MIC (+tazo)",1.6 µM
same,MIC,"P. aeruginosa ARC 3506; P. aeruginosa ARC 3506, compound alone, MH2 broth with 160 μM bipyridyl added, read-out: MIC",> 50 µM
same,MIC,"S. aureus SG 511; S. aureus SG 511, MH2 broth with 160 μM bipyridyl added, read-out: MIC",> 50 µM
same,MIC,B. dolosa AU0018; [11],> 50 µM
same,MIC,"[7]; A. baumannii ATCC BAA 1797, MH2 broth with 160 μM bipyridyl added, read-out: MIC",0.4 µM
same,MIC,"[8]; Enterobacter aerogenes X816, MH2 broth with 160 μM bipyridyl added, read-out: MIC",0.075 µM
same,MIC,"P. aeruginosa ARC 3502; ARC3502, compound alone, MH2 broth with 160 μM bipyridyl added, read-out: MIC",> 50 µM
same,MIC,"P. aeruginosa ARC 3502; ARC3502, in combination with tazobactam, plus some growth at 50, clear between 1.6-50, read-out: MIC (+tazo)",1.6 µM
same,antibacterial activity (in words),Gram-negative bacteria,remarkably potent
same,effect of combination with tazobactam on activity (in words),[9],most improved activity
"CC(C)(O/N=C(\C(=O)NC1C(=O)N(S(=O)(=O)O)[C@H]1CSCCN)c1cnc(N)s1)C(=O)O (mixture of isomers) [Compound 39, (E)-3-(2-(2-aminothiazol-5-yl)-2-(((2-carboxypropan-2-yl)oxy)imino)acetamido)-2-(((2-ammonioethyl)thio)methyl)-4-oxoazetidine-1-sulfonate, potassium salt]",MIC,A.baumannii ISR14-005,> 50 µM
same,MIC,[1],> 50 µM
same,MIC,A. baumannii ARC 5079,> 50 µM
same,MIC,"[10]; Acinetobacter baumannii, BAA1793",50 µM
same,MIC,E. coli DCO,6 µM
same,MIC,P. aeruginosa KW799/wt; KW799/WT,> 50 µM
same,MIC,A. baumannii ATCC 17961,> 50 µM
same,MIC,"Proteus mirabilis X235; Proteus mirabilis, X235",3 µM
same,MIC,[4],4.5 µM
same,MIC,P. aeruginosa 01; 01,> 50 µM
same,MIC,[5],50 µM
same,MIC,P. aeruginosa ISR-14-004,> 50 µM
same,MIC,[6]; Citrobacter,3 µM
same,MIC,P. aeruginosa ISR-14-003,> 50 µM
same,MIC,P. aeruginosa ARC 3506,> 50 µM
same,MIC,S. aureus SG 511,> 50 µM
same,MIC,B. dolosa AU0018; AU0018,> 50 µM
same,MIC,[7],50 µM
same,MIC,[8]; X816,9.4 µM
same,antibacterial activity (in words),Gram-negative bacteria,generally improved activity
same,effect of combination with tazobactam on activity (in words),[9],no improvement
"C[C@]1(Cn2ccnn2)[C@H](C(=O)O)N2C(=O)C[C@H]2S1(=O)=O [Tazobactam, tazobactam, reference compound]",MIC,"A.baumannii ISR14-005; A. baumannii ISR14-005, tazobactam alone, read-out: MIC",> 20 µg/mL
same,MIC,[1],< 10 µg/mL
same,MIC,"A. baumannii ARC 5079; A. baumannii ARC 5079, tazobactam alone, read-out: MIC",> 10 µg/mL
same,inhibition,"[10]; A. baumannii ATCC BAA 1793, tazobactam alone @ 10 μg/ml",very slight
same,inhibition,[2]; tazobactam alone @ 10 μg/ml,very slight
same,MIC,"P. aeruginosa ISR-14-004; P. aeruginosa ISR-14-004, tazobactam alone, read-out: MIC",> 20 µg/mL
same,MIC,"P. aeruginosa ISR-14-003; P. aeruginosa ISR-14-003, tazobactam alone, read-out: MIC",> 20 µg/mL
same,MIC,"P. aeruginosa ARC 3506; P. aeruginosa ARC 3506, tazobactam alone, read-out: MIC",> 10 µg/mL
same,MIC,B. dolosa AU0018; [11],> 50 µM
same,MIC,"P. aeruginosa ARC 3502; ARC3502, tazobactam alone, read-out: MIC",> 10 µg/mL
